We go through one molecule from article PMC8364251 (Pharmacological Research, 2021).

Common to all, as to format: cell-based, SARS-CoV-2
The subject of assay [1] is N501Y mutant S-pseudotyped lentivirus.
Assay [2] relates to N439K mutant S-pseudotyped lentivirus.
The subject of assay [3] is Y453F mutant S-pseudotyped lentivirus.

For the molecule `O=C(O[C@@H]1Cc2c(O)cc(O)cc2O[C@@H]1c1cc(O)c(O)c(O)c1)c1cc(O)c(O)c(O)c1` [EGCG, epigallocatechin gallate], the “inhibition of mutant pseudovirus infection” value in assay [1], in assay [2] and in assay [3] was “effectively inhibited the infection of all mutants” each time.
